Values after ≈ are worked out from the molar mass of the structure shown.
Columns and labels:
[1] = test system: red blood cells (pooled normal human whole blood); assay: Hemolysis assay; type: cell-based
Text: Hemolysis Assay. This assay employs a protocol for quantitative colorimetric determination of hemoglobin in whole blood (total blood hemoglobin—TBH) and hemoglobin released into plasma (plasma free hemoglobin—PFH) when blood was exposed to nanoparticles. In brief, hemoglobin and its derivatives, except sulfhemoglobin, were oxidized to methemoglobin by ferricyanide in the presence of alkali. Cyanmethemoglobin (CMH) was formed from the methemoglobin by its reaction with cyanide (Drabkin's solution) and then detected by spectrophotometer set at 540 nm. The hemoglobin standard was used to build a standard curve covering the concentration range from 0.025 to 0.80 mg/mL and to prepare quality control samples at low (0.0625 mg/mL), mid (0.125 mg/mL) and high (0.625 mg/mL) concentrations to monitor assay performance. Required sample volume was 300 μL, e.g., 100 μL per test-replicate. The results expressed as percent of hemolysis were used to evaluate the acute in vitro hemolytic properties of nanoparticles.
The following reagents were used in the assay: cyanmethemoglobin (CMH) reagent, (StanBio, cat. # 0321-380); hemoglobin standard (StanBio, cat. # 0325-006); Ca/Mg free DPBS (Sigma, catalogue no: D8537); pooled normal human whole blood anti-coagulated with Li-heparin; poly-L-Lysine hydrobromide (MW 150 000-300 000, Sigma, cat #P1399); polyethylene glycol (av. MW 8 000, Sigma cat # P1458); and distilled water. It is contemplated that equivalent reagents from other vendors can be used.
The positive control was prepared by dissolving poly-L-Lysine powder to a final concentration of 1% (10 mg/mL) in sterile distilled water. […] Alternatively, 1% TritonX-100 in water was used as a positive control. […]
Whole blood was collected in tubes containing Li-heparin as anti coagulant from at least three donors. […] The plate was then read by use of a plate reader at an absorbance of 540 nm to determine hemoglobin concentration. […] If calculated PFH concentration was below 1 mg/mL pooled whole blood was diluted with Ca^2+/Mg^2+ free DPBS to adjust total hemoglobin concentration to 10±2 mg/mL. […]

[2] = test system: porcine proximal tubule epithelial cells (LLC-PK1); assay: MTT and LDH cytotoxicity assays, kidney cells; type: cell-based; conditions: 1.0 to 0.004 mg/mL
Protocol: (§1) The cytotoxicity of AF1, AF3, C3, DF1 and NCL22 on porcine proximal tubule epithelial cells (LLC-PK1) was determined by a method that includes a 3-(4,5-Dimethyl-2-thiazolyl)-2,5-diphenyl-2H-tetrazolium bromide (MTT) reduction and lactate dehydrogenase (LDH) release assays. MTT that is a yellow water-soluble tetrazolium dye that is reduced by live cells to a water-insoluble purple formazan. The amount of formazan can be determined by solubilizing the formazan in DMSO and measuring it spectrophotometrically. Comparisons between the spectra of treated and untreated cells can give a relative estimation of cytotoxicity. (See, Alley et al. Cancer Res. 48: 589-60, 1988 which is hereby incorporated by reference in its entirety). The LDH assay is based upon LDH (a cytoplasmic enzyme that is released into the […] upon cell lysis) oxidizing lactate to pyruvate, pyruvate reacting with a tetrazolium salt INT to form formazan, and the water-soluble formazan dye being detected spectrophotometrically. Thus, the LDH assay is a measure of membrane integrity. […]
(§2) Briefly, for assays employing porcine kidney epithelial cells, such cells were plated at […] in a 96 well plate. […] Cytotoxicity was then determined by MTT and LDH assays.

[3] = MTT and LDH cytotoxicity assays, kidney cells; type: cell-based, porcine; conditions: pig, LLC-PK1 porcine proximal tubule epithelial cells, treated 6, 24 or 48 hours, 1.0 to 0.004 mg/mL, read-out: LC50 (the source's name)
Protocol: as §1, §2

[4] = test system: platelets (human platelet-rich plasma); assay: Platelet aggregation assay, with and without collagen; type: cell-based
Protocol: Platelet Aggregation Assay. […] The concentration of the nanoparticle was determined by considering the following parameters: i) the solubility of the nanoparticle in a biocompatible buffer; ii) maintaining the pH within a physiological range (pH 7±0.5); iii) availability of nanoparticle; and iv) stability of the nanoparticle. […] The assay required 150 μL of test material.
Platelet-rich plasma (PRP) was obtained from fresh pooled human whole blood by spinning freshly drawn blood for 8 minutes at 200 g. PRP was then pooled from at least 3 different donors. It is to be noted that during phlebotomy, the first 2 mLs of blood was discarded. Further, PRP was prepared as soon as possible from the time of obtaining the blood sample and no longer than 1 hour after blood collection. PRP was kept at room temperature and was used within 4 hours of its isolation. Exposure of either the blood or PRP to cold temperatures (<20° C.) was avoided because such temperatures induce platelet aggregations.
Three test tubes for the test sample, two tubes for the positive control and two tubes for the negative control were prepared. Twenty-five microliters of the test sample, positive control or negative control were added to the respective tubes. These samples provided data on the ability of the test nanoparticle to induced platelet aggregation. A second set of tubes were prepared for test-particles plus collagen. These set of tubes provided data on the ability of test-particles to interfere with platelet aggregation caused by collagen. For this set of studies, 25 μL of the positive control and 25 μL of the test nanoparticle was added to each “test-particles plus collagen” tube. Further, 50 μL of the negative control was added to each negative control tube and 25 μL of the positive control and 25 μL of RPMI was added to each positive control tube. In addition, one control tube with 100 μL of phosphate buffer saline (PBS) or RPMI and 25 μL of the nanoparticles was prepared to determine any potential particle interference with instrument counting procedure.
PRP was added to the appropriate tubes, samples were briefly vortexed and then incubated with control or test sample for 15 minutes at a nominal temperature of 37° C. After the incubation period, 10 mL of Isoton II diluent was added into blood cell counter vials. Two vials were prepared for each sample replicate. Twenty microliters of PRP treated with positive control, negative control or test-nanoparticle was then added to the each vial. Vials were covered and gently inverted to mix the diluted samples. PRP was analyzed by a Z2 Particle Count and Size Analyzer (Beckman Coulter) to determine the number of active platelets. Percent Coefficient of Variation (% CV) was equal to the standard deviation divided by the mean multiplied by 100. Platelet count=(5×RC)/100=# platelets×10^9/L. Further, percent platelet aggregation (% aggregation)=Control Platelet Count−Sample Platelet Count/Control Platelet Count×100). The percent coefficient of variation for each control and test sample was within 25%. […] Percent platelet aggregation above 20% was considered to be positive (for example, test-particle induces platelet aggregation).

[5] = test system: murine bone marrow myeloid precursors; assay: CFU-GM assay (myelosuppression); conditions: FIG. 3
Protocol: CFU-GM Assay. The granulocyte-macrophage colony-forming units (CFU-GM) assay employed murine bone marrow (BM). […] The BM cells were isolated from 8-12 week old mice and cultured in methylcellulose-based medium supplemented with cytokines (mSCF, mIL-3 and hIL-6) either untreated (baseline) or treated with nanoparticles (test). These cytokines promoted formation of granulocyte and macrophage (CFU-GM) colonies. After twelve days of incubation at 37° C. in the presence of 5% CO2 and 95% humidity number of colonies was quantified in baseline and test samples. A percent of CFU inhibition was then calculated for each test sample. The basic protocol for BM isolation and culture was adopted from technical manual # 28405 developed by StemCell Technologies Inc. The assay required 450 μL of a test-nanoparticles, MethoCult medium (StemCell Technologies Inc cat. # 03534), Fetal Bovine Serum prescreened for hematopoietic stem cells (StemCell Technologies Inc. cat. # 06200), Iscove's MDM with 2% FBS (StemCell Technologies Inc cat. # 07700), sterile distilled water, blunt-end 16 gauge needles (StemCell Technologies Inc cat. # 03534 2.6), cisplatin (positive control; Sigma cat #P4394), Sterile Ca^2+/Mg^2+-free DPBS (negative control; Sigma D8537). […]
The CFU-GM assay required 450 μL of nanoparticles, e.g., three 150 μL samples, each of which is analyzed in duplicate. […]

Nanoparticle dimension = type: physicochemical

In the case of `O=C(O)C1(C(=O)O)C2c3ccc4c5c3-c3c6c7c8c9c3C53C(C(=O)O)(C(=O)O)C35C(=C4)Cc3cc4c(c-9c35)C83C(CC4)(CC7CC621)C3(C(=O)O)C(=O)O` (stereo not shown) [C3, C60(>C(COOH)2)3], the percent of hemolysis ([1]; human, 3 h) is reported as “less than 2%”, the “toxicity to kidney cells” value [2] is reported as “minimally toxic” and the CC50 [3] is reported as 207 µg/mL (≈ 293 µM). The “collagen-induced platelet aggregation in presence of compound” value ([4]; compound 200 μg/mL, collagen 20 μg/mL (collagen alone greater than 60%), FIG. 4) was “approximately 15%”, the “protection of bone marrow cells from myelosuppression caused by cisplatin” value ([5]; with cisplatin (50 μM)) was “none of the tested substituted fullerenes were able to protect the bone marrow cells” and the dimension (Nanoparticle dimension) was 1.57 nm.
In the case of `CC(=O)Oc1ccccc1C(=O)O` [aspirin], the “effect on collagen-induced platelet aggregation” value ([4]; 167 μg/mL, collagen 25 μg/mL, FIG. 5) is reported as “significant reduction in collagen-induced platelet aggregation” and the “dose dependence of inhibition of collagen-induced platelet aggregation” value ([4]; 167, 33.4 and 16.7 μg/mL, collagen 25 μg/mL, FIG. 5) is reported as “dose dependent”.
With `N.N.[Cl][Pt][Cl]` [cisplatin] the myelosuppressive effect ([5]; positive control, 50 μM) was “myelosuppression caused by cisplatin treatment”.
For Triton X-100, the “hemolysis by positive control” value [1] was 90±5% and the “hemolysis of the red blood cells” value [1] was “greater than 80%”.
For collagen, the platelet aggregation induced ([4]; collagen 20 μg/mL, FIG. 4) was “greater than 60%” and the platelet aggregation induced ([4]; collagen 25 μg/mL, FIG. 5) was “greater than 80%”.
